The values below are quoted from earlier work in patent US7442671B2, “O-phenylphenol/alkoxylated amine wood protection compositions” (Contechem Inc., priority 2004, dated 2008).

In the case of `Oc1ccccc1-c1ccccc1` [O-phenylphenol, o-phenylphenol], the solubility in water entry is recorded as “only slightly soluble in water”.
